Test results: patent US20230129788A1, “GLP-1/GLP-2 DUAL AGONISTS” (Zealand Pharma A/S, priority 2020, published 2023)
Starred links: 1 amine or outer side, 2 acyl side, 3 side chain; linkers in the order of their positions; H or OH if unused. Non-standard residues stand in square brackets, D forms with d. Groups on a side chain read outwards from the residue. *: point of attachment. C18 diacid = O=C(O)CCCCCCCCCCCCCCCCC(=O)*; γGlu = O=C(O)[C@H](CCC(=O)[*:2])N[*:1]; Aib = CC(C)(N)C(=O)O

Key:
[1] = tested on: Total Parental Nutrition (TPN) Piglet Model; experiment: Small intestine mass (weight per centimeter) in total parenteral nutrition (TPN) piglet model; assay type: in vivo; conditions: piglets on TPN
Description: (§1) One-week-old piglets were placed in heated (25-30° C.) cages. Jugular and duodenal catheters were surgically implanted as described in paragraph 2 (method and material) in Jain 2015. Subsequently, preconditioned jackets and ambulatory pumps for TPN (total parenteral nutrition) delivery were fitted. Animals were started on their randomly assigned groups to receive enteral nutrition (EN; n=11), intravenous total parenteral nutrition plus vehicle (TPN; n=8) or TPN plus compound 18 (Cpd 18; n=13). Cpd 18 and vehicle were administered as daily subcutaneous injections at a dose of either 0.008 mg/kg (n=2), 0.033 mg/kg (n=2), 0.066 mg/kg (n=2) or 0.133 mg/kg (n=7).
(§2) Enteral animals (EN) received a swine milk replacement formula (formula LitterLife as described in Jain 2015, paragraph 2.6). All other animals received total parenteral nutrition (Clinimix E from Baxter as described in Jain 2015, paragraph 2.6).
Post-euthanasia (see Jain 2015, paragraph 2.7), the abdomen was opened, and the small intestine was removed. Small segments of the small bowel were sliced and weighed (see Jain 2015, paragraph 2.78). Tissue was then cut into smaller pieces, preserved for histology and snap-frozen in liquid nitrogen to be stored at −80° C. for analysis.

[2] = tested on: Total Parental Nutrition (TPN) Piglet Model; experiment: Histology of small bowel, villous/crypt (V/C) ratio, in total parenteral nutrition (TPN) piglet model; assay type: in vivo, piglets
Description: as §1, §2
Segments of fresh tissue (2-3 cm) from the small intestine were fixed in 4% buffered formalin for 24 hours and then stored in 70% ethanol at room temperature for 24 hours. […] Using the small-bowel H&E slides, the mean villous height and crypt depth were quantified in vertically well-oriented villous-crypt columns with the slide reviewer blinded to the treatment to compute a villous/crypt (V/C) ratio for animals in each group.

Substance: H-H[Aib]EGSFTSELATILDK([γGlu-C18 diacid])QAARDFIAWLIQHKITD-OH [Cpd 18]
- mass of the proximal intestine (weight per centimeter) ([1]; daily subcutaneous injections 0.008, 0.033, 0.066 or 0.133 mg/kg, sacrifice on day 14, FIG. 1): preserved the mass in a dose-dependent fashion
- mass of the distal intestine (weight per centimeter) ([1]; daily subcutaneous injections 0.008, 0.033, 0.066 or 0.133 mg/kg, sacrifice on day 14, FIG. 2): preserved the mass in a dose-dependent fashion
- weight of the proximal intestine at the highest dose compared to animals on EN ([1]; highest dose (0.133 mg/kg daily s.c.), sacrifice on day 14, FIG. 1): approximately the same as in the animals on EN
- weight of the distal intestine at the highest dose, greater than that in the animals on TPN ([1]; highest dose (0.133 mg/kg daily s.c.), sacrifice on day 14, FIG. 2): approximately 50%
- histological section of the small bowel, villi and crypts ([2]; piglet on TPN, 0.133 mg/kg for 14 days, FIG. 6 compared to FIG. 4): villi and crypts are comparable to the animal receiving enteral nutrition
- V/C ratio of the small bowel ([2]; piglets on TPN, 0.133 mg/kg daily s.c., sacrifice on day 14, FIG. 3): completely preserved the V/C ratio to the same ratio seen in the animals on EN
